Measured values: patent publication US20240270720A1, “INDAZOLE YL BENZIMIDAZOLE DERIVATIVE OR PHARMACEUTICALLY ACCEPTABLE SALT THEREOF, AND USE THEREOF” (INDUSTRY-UNIVERSITY COOPERATION FOUNDATION HANYANG …, priority 2021, published 2024)
Numbering of substitutions follows the chain as printed. Read-outs that look alike come from different tables or passages of the source.

Key:
FLT3 (D835Y) = target: T1, FLT3 (D835Y) (Homo sapiens, UniProt P36888, D835Y); test: Kinase HotSpot radiometric kinase assay (Reaction Biology)
T1 sequence (P36888 27-993 D835Y): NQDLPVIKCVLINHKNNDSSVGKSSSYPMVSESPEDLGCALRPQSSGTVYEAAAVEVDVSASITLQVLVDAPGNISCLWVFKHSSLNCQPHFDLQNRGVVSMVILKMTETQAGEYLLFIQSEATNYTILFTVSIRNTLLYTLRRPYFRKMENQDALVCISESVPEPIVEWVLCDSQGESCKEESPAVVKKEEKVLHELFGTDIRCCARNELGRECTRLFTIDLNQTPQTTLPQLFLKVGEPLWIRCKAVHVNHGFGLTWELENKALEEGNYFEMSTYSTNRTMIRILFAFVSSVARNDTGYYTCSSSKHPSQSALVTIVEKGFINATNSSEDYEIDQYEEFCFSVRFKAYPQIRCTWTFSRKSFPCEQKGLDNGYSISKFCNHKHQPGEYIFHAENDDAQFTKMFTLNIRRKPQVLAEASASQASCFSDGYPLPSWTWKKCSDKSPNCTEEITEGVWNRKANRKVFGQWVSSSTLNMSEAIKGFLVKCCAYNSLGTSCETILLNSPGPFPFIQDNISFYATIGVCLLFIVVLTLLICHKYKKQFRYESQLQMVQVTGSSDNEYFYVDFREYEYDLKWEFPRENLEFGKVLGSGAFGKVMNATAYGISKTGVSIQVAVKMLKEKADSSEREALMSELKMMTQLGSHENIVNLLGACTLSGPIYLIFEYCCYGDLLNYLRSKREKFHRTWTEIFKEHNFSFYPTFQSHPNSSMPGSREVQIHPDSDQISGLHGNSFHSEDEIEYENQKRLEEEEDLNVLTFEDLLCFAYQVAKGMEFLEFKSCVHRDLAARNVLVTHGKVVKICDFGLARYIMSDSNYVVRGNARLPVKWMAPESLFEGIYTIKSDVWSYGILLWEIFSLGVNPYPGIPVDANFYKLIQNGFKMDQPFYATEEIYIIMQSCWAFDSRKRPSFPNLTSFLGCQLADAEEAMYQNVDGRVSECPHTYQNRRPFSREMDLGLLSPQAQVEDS
Protocol: (§1) Reaction Biology Corp. Kinase HotSpot SM service (www.reactionbiology.com) was used to determine IC50 values for all compounds and kinase profiles. The analysis protocol was as follows: In a final reaction volume of 25 μL, a peptide substrate, [[sequence]], 5 μM, ATP 10 μM, and FLT3(h) (5 to 10 mU) were incubated with 25 mM Tris pH 7.5, 0.02 mM EGTA, 0.66 mg/mL myelin basic protein, 10 mM Mg acetate and [γ-33P-ATP] (a concentration of approximately 500 cpm/pmol was required for specific activity). The reaction was initiated by adding the Mg-ATP mixture. After incubation at room temperature for 40 minutes, the reaction was stopped by adding 5 μL of a 3% phosphoric acid solution. Thereafter, 10 μL of the reactant was spotted on a P30 filter mat and washed three times for 5 minutes in 75 mM phosphoric acid and once in methanol before drying and scintillation counting.

FLT3 wild type = target: T2, FLT3 wild type (Homo sapiens, UniProt P36888); test: as above; type: biochemical
T2 construct: purchased Reaction Biology Corp. (Kinase HotSpot service)
T2 sequence (P36888 27-993): T1 sequence (P36888 27-993 D835Y) with Y809D
Protocol: as §1

[1] = read-out: FLT3 (D835Y) IC50, Table 1

| Compound | melting point | IC50 (FLT3 (D835Y); [1]) | IC50 (FLT3 wild type; Table 1, read-out: FLT3 IC50) | IC50 (FLT3 (D835Y)) | IC50 (FLT3 wild type; values given in nM, read-out: IC50 FLT3 wild type) |
| --- | --- | --- | --- | --- | --- |
| CN1CCN(c2ccc(C(=O)Nc3ccc4[nH]c(-c5ccc6cn[nH]c6c5)nc4c3)cc2C(F)(F)F)CC1 [Compound 8e, N-(2-(1H-indazol-6-yl)-1H-benzo[di]imidazol-5-yl)-4-(4-methylpiperazin-1-yl)-3-(trifluoromethyl)benzamide] | 160 to 161 °C | 44 nM | 154 nM |  |  |
| CN1CCC(Oc2ccc(C(=O)Nc3ccc4[nH]c(-c5ccc6cn[nH]c6c5)nc4c3)cc2C(F)(F)F)CC1 [Compound 8x, N-(2-(1H-indazol-6-yl)-1H-benzo[di]imidazol-5-yl)-4-((1-methylpiperidin-4-yl)oxy)-3-(trifluoromethyl)benzamide] | 293 to 295 °C |  | 743 nM |  |  |
| CN1CCN(c2cc(C(=O)Nc3ccc4[nH]c(-c5ccc6cn[nH]c6c5)nc4c3)cc(C(F)(F)F)c2)CC1 [Compound 8a, N-(2-(1H-indazol-6-yl)-1H-benzo[di]imidazol-5-yl)-3-(4-methylpiperazin-1-yl)-5-(trifluoromethyl)benzamide] | 228 to 230 °C | 21 nM | 181 nM |  |  |
| Cc1nccn1-c1cc(C(=O)Nc2ccc3[nH]c(-c4ccc5cn[nH]c5c4)nc3c2)cc(C(F)(F)F)c1 [Compound 8c, N-(2-(1H-indazol-6-yl)-1H-benzo[di]imidazol-5-yl)-3-(2-methyl-1H-imidazol-1-yl)-5-(trifluoromethyl)benzamide] | 251 to 253 °C |  | 470 nM |  |  |
| CN1CCC(Oc2cc(C(=O)Nc3ccc4[nH]c(-c5ccc6cn[nH]c6c5)nc4c3)cc(C(F)(F)F)c2)CC1 [Compound 8u, N-(2-(1H-indazol-6-yl)-1H-benzo[di]imidazol-5-yl)-3-((1-methylpiperidin-4-yl)oxy)-5-(trifluoromethyl)benzamide] | 293 to 295 °C | 55 nM |  |  |  |
| CN(C)C1CCN(c2cc(C(=O)Nc3ccc4[nH]c(-c5ccc6cn[nH]c6c5)nc4c3)cc(C(F)(F)F)c2)C1 (centres unmarked) [Compound 8n, N-(2-(1H-indazol-6-yl)-1H-benzo[di]imidazol-5-yl)-3-(3-(dimethylamino)pyrrolidin-1-yl)-5-(trifluoromethyl)benzamide] | 283 to 285 °C |  | 287 nM |  |  |
| CCN1CCN(c2cc(C(=O)Nc3ccc4[nH]c(-c5ccc6cn[nH]c6c5)nc4c3)cc(C(F)(F)F)c2)CC1(C)C [Compound 8z, N-(2-(1H-indazol-6-yl)-1H-benzo[di]imidazol-5-yl)-3-(4-ethyl-3,3-dimethylpiperazine-1-yl)-5-(trifluoromethyl)benzamide] | 153 to 154 °C |  |  | ~10 nM | 65.9 nM |
| O=C(Nc1ccc(Cl)c(Cl)c1)Nc1ccc2[nH]c(-c3ccc4cn[nH]c4c3)nc2c1 [Compound 8m, 1-(2-(1H-indazol-6-yl)-1H-benzo[di]imidazol-5-yl)-3-(3,4-dichlorophenyl)urea] | 144 to 146 °C |  | 3080 nM | ~1000 nM |  |
| CCN1CCN(Cc2cc(C(=O)Nc3ccc4[nH]c(-c5ccc6cn[nH]c6c5)nc4c3)cc(C(F)(F)F)c2)CC1(C)C [Compound 8y, N-(2-(1H-indazol-6-yl)-1H-benzo[di]imidazol-5-yl)-3-((4-ethyl-3,3-dimethylpiperazine-1-yl)methyl)-5-(trifluoromethyl)benzamide] | 255 to 257 °C | 42 nM | 145 nM |  |  |
| CCN1CCC(Nc2cc(C(=O)Nc3ccc4[nH]c(-c5ccc6cn[nH]c6c5)nc4c3)cc(C(F)(F)F)c2)CC1 [Compound 8t, N-(2-(1H-indazol-6-yl)-1H-benzo[di]imidazol-5-yl)-3-((1-ethylpiperidin-4-yl)amino)-5-(trifluoromethyl)benzamide] | 166 to 168 °C | 87 nM | 286 nM |  |  |
| CC(C)(C)c1cc(C(=O)Nc2ccc3[nH]c(-c4ccc5cn[nH]c5c4)nc3c2)no1 [Compound 8h, N-(2-(1H-indazol-6-yl)-1H-benzo[di]imidazol-5-yl)-5-(tert-butyl)isoxazole-3-carboxamide] | 147 to 149 °C |  | ~700 nM | 32 nM |  |
| O=C(Nc1ccc2[nH]c(-c3ccc4cn[nH]c4c3)nc2c1)c1cc(N2CCN(C3CC3)CC2)cc(C(F)(F)F)c1 [Compound 8p, N-(2-(1H-indazol-6-yl)-1H-benzo[di]imidazol-5-yl)-3-(4-cyclopropylpiperazin-1-yl)-5-(trifluoromethyl)benzamide] | 154 to 156 °C | 131 nM | 409 nM |  |  |
| O=C(Nc1ccc2[nH]c(-c3ccc4cn[nH]c4c3)nc2c1)c1cnn(-c2ccccc2)c1C(F)(F)F [Compound 8g, N-(2-(1H-indazol-6-yl)-1H-benzo[di]imidazol-5-yl)-1-phenyl-5-(trifluoromethyl)-1H-pyrazole-4-carboxamide] | 258 to 260 °C |  | 1100 nM |  |  |
| CC(C)(C)c1cc(NC(=O)Nc2ccc3[nH]c(-c4ccc5cn[nH]c5c4)nc3c2)no1 [Compound 8l, 1-(2-(1H-indazol-6-yl)-1H-benzo[di]imidazol-5-yl)-3-(5-(tert-butyl)isoxazol-3-yl)urea] | 184 to 186 °C |  | 1170 nM |  |  |
| CN1CCC[C@@H](Nc2cc(C(=O)Nc3ccc4[nH]c(-c5ccc6cn[nH]c6c5)nc4c3)cc(C(F)(F)F)c2)C1 [Compound 8v, N-(2-(1H-indazol-6-yl)-1H-benzo[di]imidazol-5-yl)-3-((1-methylpiperidin-3-yl)amino)-5-(trifluoromethyl)benzamide] | 213 to 214 °C |  |  |  |  |
| CCN1CCN(Cc2ccc(C(=O)Nc3ccc4[nH]c(-c5ccc6cn[nH]c6c5)nc4c3)cc2C(F)(F)F)CC1 [Compound 8w, N-(2-(1H-indazol-6-yl)-1H-benzo[di]imidazol-5-yl)-4-((4-ethylpiperazin-1-yl)methyl)-3-(trifluoromethyl)benzamide] | 164 to 166 °C |  | 290 nM |  |  |
| O=C(Nc1ccc2[nH]c(-c3ccc4cn[nH]c4c3)nc2c1)c1cc(CN2CCN(C3CC3)CC2)cc(C(F)(F)F)c1 [Compound 8q, N-(2-(1H-indazol-6-yl)-1H-benzo[di]imidazol-5-yl)-3-((4-cyclopropylpiperazin-1-yl)methyl)-5-(trifluoromethyl)benzamide] | 150 to 152 °C |  | 523 nM |  |  |
| COc1ccc(/C=C/C(=O)Nc2ccc3[nH]c(-c4ccc5cn[nH]c5c4)nc3c2)cc1 [Compound 8k, (E)-N-(2-(1H-indazol-6-yl)-1H-benzo[di]imidazol-5-yl)-3-(4-methoxyphenyl)acrylamide] | 206 to 208 °C |  | 761 nM |  |  |
| CN1CCC(Nc2cc(C(=O)Nc3ccc4[nH]c(-c5ccc6cn[nH]c6c5)nc4c3)cc(C(F)(F)F)c2)CC1 [Compound 8s, N-(2-(1H-indazol-6-yl)-1H-benzo[di]imidazol-5-yl)-3-((1-methylpiperidin-4-yl)amino)-5-(trifluoromethyl)benzamide] | 175 to 177 °C |  |  |  |  |
